Patent US4701440A (Hoechst Aktiengesellschaft, priority 1983, dated 1987)

Tests used:
[1] = cited from earlier work
[2] = biological test, activity compared with unmodified insulin

Row | Substance | biological activity compared with unmodified insulin [2] | further results
1 | Porcine insulin-Arg^B31 OH | – | activity relative to unmodified porcine insulin ([1]; according to Chance, Excerpta Medica Int. Congress Series No. 231): 62%
2 | insulin-Arg^B31 -Arg^B32 -OH | approximately the same level as that of unmodified insulin | –
3 | insulin-Arg^B31 -OH | approximately the same level as that of unmodified insulin | –
4 | proinsulin: proinsulin, insulin precursor containing the C-peptide | – | biological activity as fraction of that of insulin ([1]; intact proinsulin vs insulin): about 1/8
